Calls of active or inactive are those of the source. The calls are words filed in the database; no cut-off is given here.

Data set [1] in a line: Half life in ICR mouse at 10 mg/kg, po measured upto 1440 mins by LC-MS/MS analysis. The format is ADME, organism-based. The settings on record: in vivo.
A short description of data set [2]: Tmax in ICR mouse at 10 mg/kg, po measured upto 1440 mins by LC-MS/MS analysis. The class given is ADME, organism-based. The following applies: in vivo.
Data set [3] is described as follows: AUC in ICR mouse at 1 mg/kg, iv measured upto 1440 mins by LC-MS/MS analysis. The format is ADME, organism-based. Set-up: time < 1440 min, dose 1 mg/kg, route iv. The following applies: in vivo, 24 h.
The nature of data set [4]: Half life in ICR mouse at 1 mg/kg, iv measured upto 1440 mins by LC-MS/MS analysis. The format is ADME, organism-based. The following applies: in vivo, 24 h.
The nature of data set [5]: Volume of distribution at steady state in ICR mouse at 1 mg/kg, iv measured upto 1440 mins by LC-MS/MS analysis. The format is ADME, organism-based. The following applies: in vivo, 24 h.
A short description of data set [6]: Oral bioavailability in ICR mouse at 10 mg/kg measured upto 1440 mins by LC-MS/MS analysis. The class given is ADME, organism-based. The settings on record: in vivo.
Data set [7] deals with T1, Ubiquitin carboxyl-terminal hydrolase 8 (Homo sapiens, UniProt P40818).
T1 sequence (P40818 whole entry): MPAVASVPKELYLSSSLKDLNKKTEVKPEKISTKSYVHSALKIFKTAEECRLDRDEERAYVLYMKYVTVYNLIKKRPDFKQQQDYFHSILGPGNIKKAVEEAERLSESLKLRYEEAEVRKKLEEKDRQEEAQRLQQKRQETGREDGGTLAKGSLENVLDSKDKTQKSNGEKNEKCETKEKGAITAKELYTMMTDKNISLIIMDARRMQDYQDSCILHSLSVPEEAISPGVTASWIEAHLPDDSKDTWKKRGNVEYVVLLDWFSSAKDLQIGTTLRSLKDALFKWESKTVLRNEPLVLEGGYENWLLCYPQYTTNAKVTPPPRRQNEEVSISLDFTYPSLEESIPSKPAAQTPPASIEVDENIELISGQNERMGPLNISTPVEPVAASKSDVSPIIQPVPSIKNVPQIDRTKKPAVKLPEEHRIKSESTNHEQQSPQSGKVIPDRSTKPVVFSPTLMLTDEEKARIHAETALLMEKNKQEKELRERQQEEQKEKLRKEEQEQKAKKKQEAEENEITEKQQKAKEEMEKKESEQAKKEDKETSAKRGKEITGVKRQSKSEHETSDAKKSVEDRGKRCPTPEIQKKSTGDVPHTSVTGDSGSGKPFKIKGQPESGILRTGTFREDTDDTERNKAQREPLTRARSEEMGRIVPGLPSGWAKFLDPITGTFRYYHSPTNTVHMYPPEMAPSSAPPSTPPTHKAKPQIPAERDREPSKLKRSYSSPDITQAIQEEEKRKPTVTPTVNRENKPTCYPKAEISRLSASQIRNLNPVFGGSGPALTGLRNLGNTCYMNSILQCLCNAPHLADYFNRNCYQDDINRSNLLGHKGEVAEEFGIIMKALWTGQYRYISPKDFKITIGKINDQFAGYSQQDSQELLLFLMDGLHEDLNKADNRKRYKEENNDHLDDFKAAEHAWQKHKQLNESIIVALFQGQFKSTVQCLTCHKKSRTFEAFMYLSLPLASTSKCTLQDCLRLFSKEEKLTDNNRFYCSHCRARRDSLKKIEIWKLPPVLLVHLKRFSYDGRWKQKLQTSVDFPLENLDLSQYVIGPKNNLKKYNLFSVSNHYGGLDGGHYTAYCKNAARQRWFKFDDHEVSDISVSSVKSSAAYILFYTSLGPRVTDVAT
Kind of data set: Inhibition of N-terminal His-6 tagged USP8 (734 to 1110 residues) (unknown origin) expressed in Escherichia coli BL21 (DE3) cells measured after 3 hrs by fluorescence based Plate reader method.

Data set [8] addresses T2, Ubiquitin thioesterase OTUB1 (Homo sapiens, UniProt Q96FW1). The experiment in a line: Destabilization of N-terminal His-6 tagged OTUB1 (40 to 271 residues) (unknown origin) expressed in Escherichia coli BL21 (DE3) cells assessed as reduction in melting temperature at 200 uM measured for 2 hrs in presence of dithiothreitol by SYPRO orange dye based thermal shift assay.

For data set [9], the target named is T2, Ubiquitin thioesterase OTUB1. The experiment in a line: Inhibition of OTUB1 in human NCI-H1975 cells assessed as reduction in UBE2N protein level at 500 nM measured for 24 hrs by immunoblotting analysis. The class given is cell-based. For orientation: In western blotting, separated proteins are transferred to a membrane and probed.
Data set [10] addresses T3, Ubiquitin carboxyl-terminal hydrolase 8 (Homo sapiens) (UniProt P40818).
T3 sequence (whole entry): T1 sequence (P40818 whole entry)
The experiment in a line: Inhibition of N-terminal His-6 tagged USP8 (734 to 1110 residues) (unknown origin) expressed in Escherichia coli BL21 (DE3) cells at 100 nM measured after 3 hrs by fluorescence based Plate reader method relative to control. The settings on record: values are per cent of control.

In data set [11] the target is T2, Ubiquitin thioesterase OTUB1. The experiment in a line: Inhibition of N-terminal His-6 tagged OTUB1 (40 to 271 residues) (unknown origin) expressed in Escherichia coli BL21 (DE3) cells at 100 nM using Ub-Rho measured after 0.5 to 3 hrs by fluorescence based Plate reader method relative to control. The settings on record: time 0.5-3 hrs, values are per cent of control.

Data set [12] has the same target. The experiment in a line: Inhibition of N-terminal His-6 tagged OTUB1 (40 to 271 residues) (unknown origin) expressed in Escherichia coli BL21 (DE3) cells using Ub-Rho measured after 0.5 to 3 hrs by fluorescence based Plate reader method.
The target in data set [13] is T3, Ubiquitin carboxyl-terminal hydrolase 8 (Homo sapiens). Kind of data set: Inhibition of USP8 in human NCI-H1975 cells assessed as reduction in EGFR protein level at 500 nM measured for 24 hrs by immunoblotting analysis. The class given is cell-based.
The nature of data set [14]: AUC in ICR mouse at 10 mg/kg, po measured upto 1440 mins by LC-MS/MS analysis. The format is ADME, organism-based. Set-up: time < 1440 min, dose 10 mg/kg, route po. The following applies: in vivo.
Data set [15] in a line: Cmax in ICR mouse at 10 mg/kg, po measured upto 1440 mins by LC-MS/MS analysis. The format is ADME, organism-based. Set-up: dose 10 mg/kg, time < 1440 min, route po. The settings on record: in vivo.
For data set [16], the target named is T2, Ubiquitin thioesterase OTUB1. Kind of data set: Inhibition of OTUB1 in human NCI-H1975 cells assessed as reduction in protein level at 500 nM measured for 24 hrs by immunoblotting analysis. The format is cell-based.
Data set [17] has as its target T3, Ubiquitin carboxyl-terminal hydrolase 8 (Homo sapiens). Kind of data set: Destabilization of N-terminal His-6 tagged USP8 (734 to 1110 residues) (unknown origin) expressed in Escherichia coli BL21 (DE3) cells assessed as change in melting temperature at 200 uM measured for 2 hrs in presence of dithiothreitol by SYPRO orange dye based thermal shift assay.
The subject of data set [18] is Mus musculus. Kind of data set: In vivo inhibition of USP8 in human NCI-H1975 cells xenografted BALB/c nude mouse model assessed as decrease in USP8 level at 15 mg/kg/day, po measured after 5 days by Western blot analysis. The format is functional, organism-based. The settings on record: time 5.0 day. (In general: A xenograft is tissue or cells of one species grown in another, often human tumour cells in immunodeficient mice.)

Data set [19] deals with Mus musculus. The experiment in a line: In vivo inhibition of OTUB1 in NCI-H1975 cells xenografted BALB/c nude mouse model assessed as decrease in UBE2N level at 15 mg/kg/day, po measured after 5 days by Western blot analysis. The settings on record: time 5.0 day. The format is functional, organism-based.
For data set [20], the system named is NCI-H1975. The experiment in a line: Antitumor activity against human NCI-H1975 cells xenografted in BALB/c nude mouse model assessed as reduction in tumor volume at 5 mg/kg, ip bid for 2 weeks. The format is functional, organism-based.
Data set [21] relates to NCI-H1975. The experiment in a line: Antitumor activity against human NCI-H1975 cells xenografted in BALB/c nude mouse model assessed as reduction of tumor burden at 5 mg/kg, ip qd for 2 weeks. The class given is functional, organism-based.
Data set [22] has as its target T3, Ubiquitin carboxyl-terminal hydrolase 8 (Homo sapiens). The experiment in a line: Inhibition of USP8 in human NCI-H1975 cells assessed as reduction in protein level at 500 nM measured for 24 hrs by immunoblotting analysis. The class given is cell-based.

T2 sequence (Q96FW1 whole entry, the tested form may be a part): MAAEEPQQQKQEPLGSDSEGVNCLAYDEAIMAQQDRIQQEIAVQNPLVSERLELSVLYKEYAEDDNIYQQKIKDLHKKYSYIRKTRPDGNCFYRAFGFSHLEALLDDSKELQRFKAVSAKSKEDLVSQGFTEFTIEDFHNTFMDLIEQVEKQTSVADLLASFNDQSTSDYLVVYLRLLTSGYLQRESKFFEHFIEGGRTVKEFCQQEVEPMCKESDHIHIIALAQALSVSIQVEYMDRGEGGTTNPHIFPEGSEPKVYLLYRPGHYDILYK

With `CN1CC[C@@H](Oc2ccc(Cl)c(-c3nc4c(o3)C(=O)c3ccccc3C4=O)c2)C1`, the half-life (in general, how long it takes for the measured level to halve) in data set [1] is 86.4 min. Besides, in [2], the time to peak (Tmax) (in general, the time from dosing to the highest level) was found to be 19.8 min. Moreover, the exposure (AUC) (in general, the area under the concentration-time curve, a measure of exposure) in data set [3] came to 306 ng·h/mL. The compound further gave a t1/2 in [4] of 51.6 min. In data set [5], the Vdss (as a rule, a proportionality between amount in the body and measured concentration, not a real space) is 2.37 L/kg. Moreover, the bioavailability (usually dose-corrected exposure relative to a reference, in per cent) in data set [6] is 7.5%. Moreover, the IC50 (in general, the concentration that gives 50% inhibition) in data set [7] came out at 1.27 nM; in data set [12], 7.1 nM. Further, the ΔTm (commonly the shift of the melting midpoint relative to a reference) in [8] was 1 °C. For the same compound, the inhibition entry in data set [9] and in [13] was “Active” in each case. For the same compound, the values for the residual activity in [10] and in data set [11] were 25% and 13.7%, respectively. In data set [14], this compound registered an area under the curve (AUC) at 24 h of 229 ng·h/mL. Besides, the peak level in data set [15] (Cmax) was 313 ng/mL.

Regarding `CN1CC[C@@H](Oc2ccc(Cl)c(-c3nc4c(o3)C(=O)c3ccccc3C4=O)c2F)C1`, the values for the concentration for half-maximal inhibition (IC50) in [7] and in data set [12] were 2 nM and 0.42 nM, respectively. Besides, the ΔTm in [8] was determined as 1 °C. The residual activity (in general, the share of the control activity or signal that is left under treatment) in data set [10] was 20.5%; in [11] it was 7.4%.

As to `CN1CC[C@@H](Oc2ccc(F)c(-c3nc4c(o3)C(=O)c3ccccc3C4=O)c2Cl)C1`, the half-life in data set [1] is 105 min. Besides, the Tmax in data set [2] came out at 19.8 min. Moreover, in data set [3], the AUC came to 1345 ng·h/mL. Moreover, the t1/2 in [4] came to 49.8 min. Further, the volume of distribution (Vdss) in data set [5] came to 0.77 L/kg. Besides, the inhibition result in data set [16], in data set [9], in [13] and in [22] was “Active” throughout. Besides, the bioavailability in [6] came out at 27.9%. In addition, the thermal shift (ΔTm) in [17] was 2 °C; in data set [8], 2.5 °C. Moreover, the outcome in the data set on Mus musculus [18], with Mus musculus [19], with NCI-H1975 [20] and with NCI-H1975 [21] was Active. The results for the half-inhibitory concentration (IC50) in [7] and in data set [12] were 0.28 nM and 0.17 nM, respectively. For the same compound, the residual activity was found to be 16.5% in [10] and 7.3% in data set [11]. Further, in data set [14], the AUC at 24 h was found to be 3750 ng·h/mL. Besides, the Cmax (commonly the highest concentration seen after dosing) in data set [15] was determined as 4270 ng/mL.

For `O=C1c2ccccc2C(=O)c2oc(-c3cccnc3)nc21`, the IC50 is 2.7 nM in data set [7] and 1.7 nM in [12]. The ΔTm in data set [8] worked out at 1 °C. Further, the residual activity in data set [10] was found to be 32.2%; in [11] it was 18.2%.
